The values that follow come from publication PMC1192819, “Molecular cloning and characterization of a nuclear androgen receptor activated by 11-ketotestosterone” (Reproductive biology and endocrinology : RB&E, 2005).

Experiment [1] concerns spiggin mRNA in adult female stickleback kidney. Description: Induction of spiggin mRNA in stickleback kidney after steroid implants (slot blot). Type of experiment: in vivo, three-spined stickleback (Gasterosteus aculeatus). To be noted: females. The protocol: The fish were anesthetized with 0.1% (v/v) 2-phenoxyethanol (Sigma, St. Louis, MO, USA) and implanted intraperitoneally with Silclear silicone tubing (10-mm length, 0.6-mm inner diameter, 1.2-mm outer diameter) containing steroids dissolved in cocoa butter. […] KA was used as this steroid is converted into KT by the fish. Tubes containing cocoa butter alone were used as controls. Following implantation the fish were maintained in 50-liter aquaria containing brackish water (0.5% salinity) at 20°C under LD 16:8 h. At sampling fish were decapitated and the kidneys were excised, frozen using liquid nitrogen, and stored at -70°C. A number of experiments were performed as follows. Spiggin mRNA was measured in post-breeding females that were dissected 2 days following implantation of tubes. Cytosolic androgen-receptors were measured in females and in castrated males. Males were castrated under anesthesia as above, by making a 1.5 mm long incision into the abdominal cavity on each side and removing the testes using forceps. The females and the castrated males were implanted with control and high dose tubes and dissected after 6 days. AR mRNA was studied in females implanted for 12 h, 2 and 16 days (separate experiments) with control and high dose tubes and in males castrated as above and implanted for 10 days with control tubes and high doses of KA or E2.
Total RNA was extracted using Tri Reagent™ (Sigma). Aliquots of 10 μg of total RNA were mixed with denaturing solution (6 × SSC, 7% (v/v) formaldehyde) and transferred onto a nylon membrane (Amersham Pharmacia Biotech) using a Minifold II Slot Blot Apparatus (Schleicher and Schuell, Keene, NH, USA). Membranes were probed using either a randomly primed [α-^32P]-dCTP radiolabelled AR cDNA fragment (918 base pairs) that was isolated by reverse transcriptase-polymerase chain reaction and sequenced as above, or a randomly primed [α-^32P]-dCTP radiolabelled spiggin-α cDNA. Hybridizations were performed at 65°C overnight (6 × SCC, 0.1% (w/v) SDS, 100 μg ml^-1 tRNA, and 5 × Denhardt's solution). The membranes were washed for 2 × 30 minutes at 42°C and 65°C in 0.1 × SCC, 0.1% (w/v) SDS whereafter Hyperfilm™-MP film was exposed at -70°C. The films were visualized using Curix 60 Film Developer. Following AR and spiggin mRNA determination the membranes were stripped and analyzed for 18S rRNA using a cDNA fragment as internal control. Each AR or spiggin transcript was then semi-quantified using Quantity ONE 4.2.3 (Bio-Rad, Laboratories, Inc, Hercules, CA, USA) in relation to its internal 18S transcript.

In a further experiment the test system is stickleback ARβ2. Description: ARE-luciferase trans-activation assay, stickleback ARβ2 in transfected HepG2 and ZFL cells. Type of experiment: cell-based, three-spined stickleback (Gasterosteus aculeatus). The settings on record: for induction of luciferase activity: 40 h, versus control. The protocol:
Two liver epithelial cell lines were used to test receptor activity. HepG2 cells (ATCC, Manassas, VA) were maintained in DMEM supplemented with 10% FCS and non-essential amino acids. ZFL cells (ATCC) were maintained in 50% L-15 Leibovitz, 15% […] and 35% DMEM supplemented with 10% FCS (Gibco, Paisley, Scotland, UK) and 50 ng ml-1 EGF (Sigma). Cells were cultured at 37°C (HepG2) or 28°C (ZFL) in 5% CO2. The transfection experiments were initiated by replacing the tissue culture medium with fresh phenol-free medium supplemented with charcoal stripped FCS and the cells were seeded on 24-well plates. Transfections were performed at 90–95% confluence using 1,5 μl Lipofectamine 2000 (Invitrogen, Carlsbad, CA, USA) and 0,6 μg DNA per well. Transfected DNA contained 60 ng pRL (Promega), 270 ng androgen response element (ARE) luciferase reporter vector, 270 ng stickleback ARβ2 expression vector or 270 ng human AR expression vector (pCMVhAR) while 270 ng empty TNT cloning vector was used to control background luciferase levels following transfections. Two different ARE containing promoter constructs were tested, one containing 3 separate ARE (HRE; slp-ARU) and a second one construct (slp-HRE2) containing 4 copies of the ARE with high affinity for R1881, a synthetic androgen, and low affinity for dexamethasone, a synthetic glucocorticoid.
After 16 h the transfection medium was replaced with fresh phenol-free medium, supplemented with charcoal stripped FCS, containing different steroid hormones. The cells were exposed to the hormones for 40 h and luciferase levels were detected using the Dual Luciferase Assay kit (Promega) in a TD 20/20 Luminometer (Turner Designs, Sunnyvale, CA). For each cell line, transfection assay was performed for each concentration with n = 4 and the luciferase value of each assay were normalized to its corresponding Renilla luciferase activity. Each experiment was repeated a minimum of 3 times. The fold-induction is presented as luciferase values normalized against the control. The control levels were arbitrarily set to 1.0 for each cell line.

Each structure is given as a SMILES string.

Regarding `C[C@]12CC(=O)[C@H]3[C@@H](CCC4=CC(=O)CC[C@@]43C)[C@@H]1CC[C@@H]2O` [KT, 11-ketotestosterone], in experiment [1] (1 μg implant dose), the “potency in spiggin induction relative to DHT” value is reported as 23 times. In addition, in experiment [1] (25 μg implant dose), the “effectiveness at increasing kidney spiggin mRNA levels relative to T” value was 50 times. Moreover, the “induction of luciferase activity” value in the experiment on stickleback ARβ2 (HepG2 cells) stood at 10 fold; in the experiment on stickleback ARβ2 (ZFL cells), 12 fold. For the same molecule, in the experiment with stickleback ARβ2 (HepG2 or ZFL cells, slp-ARU or slp-ARE reporter), the “potency in activating the luciferase reporter gene relative to DHT” value is 3 fold. The “activation of stickleback AR compared with other androgens” value in the experiment with stickleback ARβ2 (ZFL cells, 10^-8 M of each steroid) is listed as “preferentially activated”.
